Data on 42 compounds can be found in patent US6335339B1, “Triazine antiviral compounds” (Scriptgen Pharmaceuticals, Inc., priority 1998, dated 2002).

The test system of one test is HBV εRNA. Description: εRNA/oligonucleotide hybridization inhibition assay with rRNA competitor. The class given is binding, Hepatitis B virus. The following applies: for IC50 / HBV + rRNA IC50 (μM): radiolabeled εRNA, 60-fold excess rRNA competitor; for Specificity: ratio RRE+rRNA IC50/εRNA+rRNA IC50, max = inactive in RRE assay. The essentials:
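Inhibition of hybridization between 25 nM [32P]-εRNA and 100 nM biotinylated complementary oligonucleotide (50 mM Tris-HCl pH 7.5, 200 mM KCl, 5 mM MgCl2, 60 min, 25 °C), hybrids captured by streptavidin filter and counted. Titrations 0.1-200 μM with 60-fold excess rRNA; specificity = RRE+rRNA IC50/εRNA+rRNA IC50.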

A further test relates to HIV derived RRE RNA. Description: heterologous hybridization inhibition assay with RRE RNA. The format is binding. The following applies: radiolabeled RRE RNA, rRNA competitor.

Regarding `CCCCN(CCCC)c1nc(NN=Cc2ccc(OCC)c(O)c2)nc(Nc2ccc([N+](=O)[O-])cc2)n1` [Compound 23], in the test with HBV εRNA, the IC50 – broadly, the concentration needed to halve the response being measured – stood at 5.7 µM and the Specificity entry is on record as “max”. In addition, the “RRE + rRNA IC50 (μM)” value in the test with HIV derived RRE RNA was “inactive”.
For `COc1ccc(Br)cc1/C=N/Nc1nc(Nc2cccc([N+](=O)[O-])c2)nc(N2CCOCC2)n1` [Compound 28], in that order: 18.9 µM, “max” and “inactive”.
For `COc1ccc(Nc2nc(NN=Cc3ccc(Cl)cc3)nc(Nc3ccccc3)n2)cc1` [Compound 22], in that order: 3.6 µM, “max” and “inactive”.
The matching figures for `CC(=NNc1nc(Nc2ccccc2)nc(N2CCCC2)n1)c1ccc([N+](=O)[O-])cc1` [Compound 183]: 47.8 µM, “max” and “inactive”.
With `COc1c(Br)cc(Br)cc1C=NNc1nc(Nc2ccccc2)nc(N2CCCCC2)n1` [Compound 14], in the test with HBV εRNA, the IC50 was 7.1 µM and the Specificity entry is given as “max”. Besides, in the test on HIV derived RRE RNA, the “RRE + rRNA IC50 (μM)” value is “inactive”.
With `Cc1ccccc1Nc1nc(NN=Cc2ccc3c(c2)OCO3)nc(Nc2ccc([N+](=O)[O-])cc2)n1` [Compound 29], in the test with HBV εRNA, the IC50 is 24.8 µM and the Specificity result is “max”. The “RRE + rRNA IC50 (μM)” value in the test with HIV derived RRE RNA is “inactive”.
Consider `O=[N+]([O-])c1ccc(Nc2nc(NCc3ccccc3)nc(NN=Cc3ccccc3)n2)cc1` [Compound 24], for which, in the test with HBV εRNA, the IC50 was determined as 10 µM and the Specificity result is given as “max”. Besides, the “RRE + rRNA IC50 (μM)” value in the test on HIV derived RRE RNA was “inactive”.
The matching figures for `Cc1ccc(Nc2nc(NN=Cc3cccc([N+](=O)[O-])c3)nc(Nc3ccccc3)n2)c(C)c1` [Compound 229]: 4.4 µM, “max” and “inactive”.
In the case of `Cc1ccc(Nc2nc(NN=Cc3ccccc3)nc(Nc3ccccc3)n2)c(C)c1` [Compound 7], in the test with HBV εRNA, the IC50 stood at 2.4 µM and the Specificity entry is on record as “max”. For the same compound, the “RRE + rRNA IC50 (μM)” value in the test on HIV derived RRE RNA is listed as “Inactive”.
Regarding `CNc1nc(NN=Cc2ccccc2C(F)(F)F)nc(Nc2cccc(C(F)(F)F)c2)n1` [Compound 253], in the test with HBV εRNA, the IC50 was 11 µM and the Specificity is reported as 59.9. Moreover, in the test on HIV derived RRE RNA, the IC50 worked out at 659 µM.
As to `FC(F)(F)c1cccc(Nc2nc(Nc3cccc(Cl)c3)nc(N3CCOCC3)n2)c1` [Compound 247], in the test on HBV εRNA, the IC50 was found to be 6.7 µM and the Specificity entry is given as “max”. Further, the “RRE + rRNA IC50 (μM)” value in the test on HIV derived RRE RNA is “inactive”.
The matching figures for `Cc1[nH]c2ccccc2c1C=NNc1nc(Nc2ccccc2)nc(Nc2ccc([N+](=O)[O-])cc2)n1` [Compound 6]: 10.4 µM, “max” and “inactive”.
For `Cc1ccc(Nc2nc(NCc3ccccc3)nc(NN=Cc3ccc(F)cc3F)n2)cc1C` [Compound 191], in that order: 87 µM, “max” and “inactive”.
As to `Oc1ccc(Cl)cc1C=NNc1nc(Nc2ccc3ccccc3c2)nc(N2CCOCC2)n1` [Compound 160], the results for the IC50 in the test on HBV εRNA and in the test on HIV derived RRE RNA were 9.5 µM and 420 µM, respectively. Further, the Specificity with HBV εRNA is listed as 44.2.
`Fc1cccc(C=NNc2nc(Nc3ccccc3)nc(N3CCCC3)n2)c1` [Compound 201]: in the test on HBV εRNA, the IC50 is 53 µM and the Specificity entry is reported as “max”. The “RRE + rRNA IC50 (μM)” value in the test with HIV derived RRE RNA was “inactive”.
`COc1c(C=NNc2nc(NCc3ccccc3)nc(Nc3ccccc3)n2)cccc1[N+](=O)[O-]` [Compound 162]: in the test on HBV εRNA, the IC50 was found to be 11.7 µM and the Specificity entry is listed as “max”. Further, the “RRE + rRNA IC50 (μM)” value in the test with HIV derived RRE RNA was “inactive”.
For the compound `Cc1ccc(Nc2nc(NN=Cc3ccc(I)cc3)nc(Nc3ccccc3)n2)c(C)c1` [Compound 113], in the test with HBV εRNA, the IC50 was 33.1 µM and the Specificity is 9.1. Moreover, the IC50 in the test on HIV derived RRE RNA came out at 300 µM.
With `CC(=NNc1nc(Nc2ccccc2)nc(N2CCCC2)n1)c1ccc(F)cc1` [Compound 227], in the test with HBV εRNA, the IC50 is 12.8 µM and the Specificity result is on record as “max”. The “RRE + rRNA IC50 (μM)” value in the test on HIV derived RRE RNA is “inactive”.
The matching figures for `Cc1ccc(Nc2nc(NN=Cc3ccc(Cl)cc3)nc(N3CCOCC3)n2)cc1Cl` [Compound 196]: 32.7 µM, “max” and “inactive”.
Take `C(=Cc1ccccc1)C=NNc1nc(Nc2ccccc2)nc(Nc2ccccc2)n1` [Compound 125]: in the test with HBV εRNA, the IC50 turned out to be 35.1 µM and the Specificity was 28.5. In the test on HIV derived RRE RNA, the IC50 is 1000 µM.
Regarding `Brc1cccc(C=NNc2nc(Nc3ccccc3)nc(N3CCOCC3)n2)c1` [Compound 163], in the test with HBV εRNA, the IC50 is 99 µM and the Specificity entry is “max”. In the test with HIV derived RRE RNA, the “RRE + rRNA IC50 (μM)” value is “inactive”.
`Cc1ccc(Nc2nc(NN=Cc3ccc(O)cc3O)nc(Nc3ccc([N+](=O)[O-])cc3)n2)cc1C` [Compound 9]: in the test with HBV εRNA, the IC50 came out at 6.2 µM and the Specificity worked out at 132.6. Besides, the “RRE + rRNA IC50 (μM)” value in the test on HIV derived RRE RNA is “inactive”.
The matching figures for `Brc1ccc(Nc2nc(NCc3ccccc3)nc(Nc3ccc(Br)cc3)n2)cc1` [Compound 230]: 20.9 µM, “max” and “inactive”.
For the compound `Oc1ccccc1C=NNc1nc(Nc2ccccc2)nc(N2CCCCC2)n1` [Compound 169], in the test on HBV εRNA, the IC50 amounted to 15.4 µM and the Specificity result is “max”. The “RRE + rRNA IC50 (μM)” value in the test with HIV derived RRE RNA was “inactive”.
`Cc1ccc(Nc2nc(NCc3ccccc3)nc(NN=Cc3cc(Br)cc(Br)c3O)n2)cc1C` [Compound 219]: the “HBV + rRNA IC50 (μM)” value with HBV εRNA was “inactive”. Besides, the “RRE + rRNA IC50 (μM)” value in the test with HIV derived RRE RNA is “inactive”.
Regarding `Cc1ccc(Nc2nc(NCc3cc(F)ccc3F)nc(Nc3ccc([N+](=O)[O-])cc3)n2)cc1C` [Compound 248], in the test on HBV εRNA, the “HBV + rRNA IC50 (μM)” value is “inactive”. For the same compound, the “RRE + rRNA IC50 (μM)” value in the test on HIV derived RRE RNA is “inactive”.
Take `O=C(NNc1nc(Nc2ccccc2)nc(Nc2cccc(C(F)(F)F)c2)n1)c1cccc(Br)c1` [Compound 220]: in the test on HBV εRNA, the IC50 stood at 27.6 µM and the Specificity was 33.3. In the test with HIV derived RRE RNA, the IC50 worked out at 918 µM.
`CCN(CC)c1nc(NN=Cc2c(O)ccc3ccccc23)nc(Nc2ccccc2)n1` [Compound 171]: in the test on HBV εRNA, the IC50 was found to be 9.4 µM and the Specificity entry was “max”. For the same compound, in the test with HIV derived RRE RNA, the “RRE + rRNA IC50 (μM)” value was “inactive”.
The matching figures for `CCN(CC)CCNc1ccc2c3c(cccc13)C(=O)N(Nc1nc(NCc3ccccc3)nc(N(CC)CC)n1)C2=O` [Compound 27]: 15.5 µM, “max” and “inactive”.
The matching figures for `Cc1ccc(Nc2nc(NN=Cc3cc(I)ccc3O)nc(Nc3ccccc3)n2)c(C)c1` [Compound 159]: 2.7 µM, “max” and “inactive”.
The matching figures for `Cc1ccc(Nc2nc(NCc3ccccc3)nc(NN=Cc3ccccc3F)n2)cc1C` [Compound 228]: 79.3 µM, “max” and “inactive”.
In the case of `CNc1nc(NN=Cc2cc(Cl)ccc2O)nc(Nc2ccccc2)n1` [Compound 245], in the test on HBV εRNA, the IC50 amounted to 8.1 µM and the Specificity entry is given as “max”. For the same compound, in the test with HIV derived RRE RNA, the “RRE + rRNA IC50 (μM)” value was “inactive”.
`CCCCN(CCCC)c1nc(NN=Cc2cccc(Cl)c2)nc(Nc2ccc([N+](=O)[O-])cc2)n1` [Compound 35]: in the test with HBV εRNA, the IC50 turned out to be 24.9 µM and the Specificity entry is given as “max”. The “RRE + rRNA IC50 (μM)” value in the test on HIV derived RRE RNA is “inactive”.
As to `Oc1ccc(I)cc1C=NNc1nc(NCc2ccccc2)nc(Nc2ccccc2)n1` [Compound 33], in the test with HBV εRNA, the IC50 amounted to 37.2 µM and the Specificity result is “max”. Moreover, in the test on HIV derived RRE RNA, the “RRE + rRNA IC50 (μM)” value is “inactive”.
For `FC(F)(F)c1cccc(Nc2nc(Nc3ccccc3)nc(N3CCOCC3)n2)c1` [Compound 21], in that order: 14.4 µM, “max” and “inactive”.
Regarding `COc1ccccc1C=NNc1nc(NCc2ccccc2)nc(Nc2ccccc2)n1` [Compound 195], in the test on HBV εRNA, the IC50 was 28.2 µM and the Specificity result is “max”. Also, the “RRE + rRNA IC50 (μM)” value in the test on HIV derived RRE RNA is “inactive”.
As for `CC(C=NNc1nc(Nc2ccc([N+](=O)[O-])cc2)nc(Nc2ccc(C)c(C)c2)n1)=Cc1ccccc1` [Compound 19], in the test with HBV εRNA, the IC50 worked out at 9.9 µM and the Specificity result is reported as “max”. Also, the “RRE + rRNA IC50 (μM)” value in the test with HIV derived RRE RNA was “inactive”.
On to `Clc1ccc(C=NNc2nc(Nc3ccccc3)nc(N3CCCC3)n2)cc1` [Compound 218], for which, in the test on HBV εRNA, the IC50 was 4.8 µM and the Specificity stood at 12.0. In addition, in the test with HIV derived RRE RNA, the IC50 was found to be 57.8 µM.
Turning to `CCN(CC)c1nc(NN=Cc2ccc([N+](=O)[O-])cc2)nc(Nc2ccccc2)n1` [Compound 13], in the test on HBV εRNA, the IC50 was 4.9 µM and the Specificity result was “max”. The “RRE + rRNA IC50 (μM)” value in the test on HIV derived RRE RNA was “inactive”.
In the case of `O=[N+]([O-])c1ccc(Nc2nc(NN=Cc3ccc(Br)cc3)nc(N3CCCCCC3)n2)cc1` [Compound 117], in the test on HBV εRNA, the IC50 was 15.6 µM and the Specificity entry is listed as “max”. In the test with HIV derived RRE RNA, the “RRE + rRNA IC50 (μM)” value is “inactive”.
On to `COc1ccc(Nc2nc(NN=Cc3cc(Br)cc(Br)c3O)nc(N3CCOCC3)n2)cc1` [Compound 200], for which, in the test on HBV εRNA, the IC50 amounted to 12.1 µM and the Specificity entry is on record as “max”. Also, the “RRE + rRNA IC50 (μM)” value with HIV derived RRE RNA was “inactive”.
In the case of `Oc1c(Br)cc(Cl)cc1/C=N/Nc1nc(Nc2cccc(C(F)(F)F)c2)nc(N2CCOCC2)n1` [Compound 34], in the test on HBV εRNA, the IC50 is 21 µM and the Specificity entry is recorded as “max”. Further, the “RRE + rRNA IC50 (μM)” value in the test on HIV derived RRE RNA was “inactive”.
